The text below walks through data of ChEMBL document CHEMBL3769359, “Design of Selective PAK1 Inhibitor G-5555: Improving Properties by Employing an Unorthodox Low-pK a Polar Moiety” (ACS Med Chem Lett, 2015).

Data set [1] can be described thus: Hepatic clearance in human liver microsomes after 1 hr by LC-MS/MS analysis. In kind it is ADME.
Data set [2] in a line: Clearance in CD1 mouse blood at 2 mg/kg, iv after 8 hrs by LC/MS/MS. Type of data set: ADME, organism-based. Conditions: whole blood.
A short description of data set [3]: Half life in CD1 mouse blood at 2 mg/kg, iv after 8 hrs by LC/MS/MS. In kind it is ADME, organism-based. To be noted: whole blood.
Data set [4] is described as follows: AUC (0 to 8 hrs) in CD1 mouse blood at 25 mg/kg, po after 8 hrs by LC/MS/MS. Conditions: whole blood. Also on record: time < 8 hr, dose 25 mg/kg, route oral. Type of data set: ADME, organism-based.
A short description of data set [5]: Oral bioavailability in CD1 mouse blood at 25 mg/kg after 8 hrs by LC/MS/MS. In kind it is ADME, organism-based. Conditions: whole blood.
The nature of data set [6]: Plasma clearance in cynomolgus monkey. Type of data set: ADME, organism-based, Macaca fascicularis.
The nature of data set [7]: Oral bioavailability in cynomolgus monkey. In kind it is ADME, organism-based, Macaca fascicularis. To be noted: in vivo.

Turning to `CNc1ncc2cc(-c3ccc(-c4cncc(C)n4)cc3Cl)c(=O)n(C[C@H]3CNCCO3)c2n1`, the CLhep predicted in data set [1] was 10.7 mL/min/kg. Same read-out and setting: then `CNc1ncc2cc(-c3ccc(-c4cccc(C)n4)cc3Cl)c(=O)n(C[C@@H]3CCNCC3(F)F)c2n1`, with 17.8 mL/min/kg; and `CNc1ncc2cc(-c3ccc(-c4cccc(C)n4)cc3Cl)c(=O)n(C[C@H]3OC[C@H](NC)CO3)c2n1`, with 13.8 mL/min/kg. `CNc1ncc2cc(-c3ccc(-c4cccc(C)n4)cc3Cl)c(=O)n(CC3COC4(CNC4)OC3)c2n1`: in data set [1], the CLhep predicted is 11.6 mL/min/kg. On to `CCNc1ncc2cc(-c3ccc(-c4cncc(C)n4)cc3Cl)c(=O)n(CCCO)c2n1`, for which the CLhep predicted in data set [1] is 14.7 mL/min/kg. Turning to `CCNc1ncc2cc(-c3ccc(-c4cncc(C)n4)cc3Cl)c(=O)n(C[C@H]3OC[C@H](N)CO3)c2n1`, the CLhep predicted in data set [1] is 9.6 mL/min/kg. Regarding `CCNc1ncc2cc(-c3ccc(-c4cncc(C)n4)cc3Cl)c(=O)n(CC3CCNC(=O)C3)c2n1` (centres undefined), the CLhep predicted in data set [1] is 12.5 mL/min/kg. In the case of `CNc1ncc2cc(-c3ccc(-c4cccc(C)n4)cc3Cl)c(=O)n(C[C@H]3OC[C@H](N)CO3)c2n1`, the CLhep predicted in data set [1] is 11.6 mL/min/kg. Moreover, the clearance (commonly a measure of how efficiently the substance is removed, as volume per time) in data set [2] turned out to be 24.2 mL/min/kg; in data set [6] it was 3.4 mL/min/kg. Also, the half-life (commonly the time in which the quantity being followed falls by half) in data set [3] amounted to 53 min. Further, the AUC(0-t) (as a rule, exposure summed from dosing to a finite time, without extrapolation to infinity) at 8 h in data set [4] worked out at 30 µM·h. For the same molecule, the figures for the bioavailability in data set [5] and in data set [7] were 80% and 72%, respectively.
